Results published in ChEMBL document CHEMBL4382203, “Discovery, cocrystallization and biological evaluation of novel piperidine derivatives as high affinity Ls-AChBP ligands possessing α7 nAChR activities” (Eur J Med Chem, 2018).
The source made the active and inactive calls. No cut-off for these calls is given here.

How the values were obtained:
[1] = biological target: T1, Neuronal acetylcholine receptor subunit alpha-7 (Homo sapiens, UniProt P36544); assay: Partial agonist activity at human alpha7 nAChR expressed in Xenopus laevis oocytes at holding potential of -90 mV by patch clamp electrophysiological method; type: cell-based
[2] = biological target: T1, Neuronal acetylcholine receptor subunit alpha-7; assay: Partial agonist activity at human alpha7 nAChR at 100 uM at -60 mV holding potential incubated for 1 sec followed by 60 secs compound washout relative to acetylcholine
[3] = biological target: Acetylcholine-binding protein (Lymnaea stagnalis, UniProt P58154); assay: Displacement of [3H]epibatidine from Lymnaea stagnalis acetylcholine-binding protein incubated for 60 mins followed by 3 hrs incubation in dark condition by microbeta counting analysis
[4] = biological target: Neuronal acetylcholine receptor; alpha4/beta2 (Homo sapiens) (UniProt P17787+P43681); assay: Agonist activity at alpha4beta2 nAChR (unknown origin) at -60 mV holding potential incubated for 1 sec followed by 60 secs compound washout; type: protein-complex assay
[5] = biological target: T1, Neuronal acetylcholine receptor subunit alpha-7; assay: Antagonist activity at human alpha7 nAChR assessed as inhibition of acetylcholine-induced response at 1 uM at -60 mV holding potential incubated for 30 secs followed by acetylcholine addition and subsequent compound washout for 30 secs relative to acetylcholine
[6] = biological target: T1, Neuronal acetylcholine receptor subunit alpha-7; assay: Antagonist activity at human alpha7 nAChR assessed as inhibition of acetylcholine-induced response at 100 uM at -60 mV holding potential incubated for 30 secs followed by acetylcholine addition and subsequent compound washout for 30 secs relative to acetylcholine
[7] = Clearance in ICR mouse at 2 mg/kg, iv; type: ADME, organism-based; details: in vivo
[8] = AUC (0 to infinity) in ICR mouse at 2 mg/kg, iv; type: ADME, organism-based; parameters: dose 2 mg/kg, route intravenous, time infinity; details: in vivo
[9] = Cmax in ICR mouse at 2 mg/kg, iv; type: ADME, organism-based; parameters: dose 2 mg/kg, route intravenous; details: in vivo
[10] = Half life in ICR mouse at 2 mg/kg, iv; type: ADME, organism-based; details: in vivo
[11] = Ratio of drug level in blood to plasma in ICR mouse at 2 mg/kg, iv after 4 hrs; type: ADME, organism-based; details: blood and plasma
[12] = Tmax in ICR mouse at 2 mg/kg, iv; type: ADME, organism-based; details: in vivo
[13] = Half life in ICR mouse at 10 mg/kg, po; type: ADME, organism-based; details: in vivo
[14] = biological target: T1, Neuronal acetylcholine receptor subunit alpha-7; assay: Partial agonist activity at human alpha7 nAChR at -60 mV holding potential incubated for 1 sec followed by 60 secs compound washout
[15] = Apparent volume of distribution in ICR mouse at 2 mg/kg, iv; type: ADME, organism-based; details: in vivo, read-out: Vz
[16] = Cmax in ICR mouse at 10 mg/kg, po; type: ADME, organism-based; parameters: dose 10 mg/kg, route oral; details: in vivo
[17] = Ratio of drug level in blood to plasma in ICR mouse at 10 mg/kg, po after 4 hrs; type: ADME, organism-based; details: blood and plasma
[18] = AUC (0 to infinity) in ICR mouse at 10 mg/kg, po; type: ADME, organism-based; parameters: dose 10 mg/kg, time infinity, route oral; details: in vivo
[19] = Tmax in ICR mouse at 10 mg/kg, po; type: ADME, organism-based; details: in vivo
[20] = Oral bioavailability in ICR mouse at 10 mg/kg; type: ADME, organism-based; details: in vivo
[21] = biological target: Acetylcholine-binding protein (Lymnaea stagnalis) (UniProt P58154); assay: Displacement of [3H]epibatidine from Lymnaea stagnalis acetylcholine-binding protein at 100 nM incubated for 60 mins followed by 3 hrs incubation in dark condition by microbeta counting analysis relative to control
[22] = biological target: T1, Neuronal acetylcholine receptor subunit alpha-7; assay: Partial agonist activity at human alpha7 nAChR expressed in Xenopus laevis oocytes by voltage clamp electrophysiological method; type: cell-based

Sequence of Acetylcholine-binding protein (P58154 whole entry): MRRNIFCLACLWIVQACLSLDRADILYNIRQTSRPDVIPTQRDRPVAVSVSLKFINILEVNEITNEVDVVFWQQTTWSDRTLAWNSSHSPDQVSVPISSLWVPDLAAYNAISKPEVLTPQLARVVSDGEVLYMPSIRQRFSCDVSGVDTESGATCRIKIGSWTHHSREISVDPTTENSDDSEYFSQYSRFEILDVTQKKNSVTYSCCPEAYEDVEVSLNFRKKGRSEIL
Sequence of Acetylcholine-binding protein (Lymnaea stagnalis) (P58154 whole entry): as above
T1 sequence (P36544 whole entry): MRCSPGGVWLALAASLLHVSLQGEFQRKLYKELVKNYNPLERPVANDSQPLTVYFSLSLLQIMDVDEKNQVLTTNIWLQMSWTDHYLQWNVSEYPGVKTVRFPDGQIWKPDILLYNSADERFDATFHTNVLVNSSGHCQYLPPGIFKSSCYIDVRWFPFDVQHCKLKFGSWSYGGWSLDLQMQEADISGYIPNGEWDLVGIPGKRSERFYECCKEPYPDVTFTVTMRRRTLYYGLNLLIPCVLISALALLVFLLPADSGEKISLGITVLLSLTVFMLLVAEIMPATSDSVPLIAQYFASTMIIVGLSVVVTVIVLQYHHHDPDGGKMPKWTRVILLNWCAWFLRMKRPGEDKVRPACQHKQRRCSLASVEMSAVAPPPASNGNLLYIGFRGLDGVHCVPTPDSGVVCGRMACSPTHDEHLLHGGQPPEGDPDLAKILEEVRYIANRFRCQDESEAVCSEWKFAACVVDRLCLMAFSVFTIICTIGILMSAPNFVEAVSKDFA

| SMILES | Efficacy [2] | Ki [3] | also measured |
| --- | --- | --- | --- |
| Cc1ccc(-c2ccc(O[C@H]3CN4CCC3CC4)cn2)cc1 |  |  | EC50 [1]: 39 nM |
| Clc1cccc(CC2(COc3cccnc3)CCCNC2)c1Cl (centres undefined) | 19.5% | 6.02 nM |  |
| OCCCC#Cc1cncc(OCC2(Cc3cccc(Cl)c3)CCCNC2)c1 (centres undefined) |  | 12.5 nM |  |
| Clc1cccc(CC2(COc3cncnc3)CCCNC2)c1 (centres undefined) |  | 5.22 nM |  |
| Clc1ccc(CC2(COc3cccnc3)CCNCC2)cc1Cl | 3.1% |  | Activity [4]: inactive; inhibition [5]: 27.2%; inhibition [6]: 94% |
| c1ccc(-c2ccc(CC3(COc4cccnc4)CCCNC3)cc2)cc1 (centres undefined) | 7.9% | 11.7 nM | inhibition [5]: 53.4%; inhibition [6]: 96.5% |
| Clc1ccc(C[C@@]2(COc3cccnc3)CCCNC2)cc1Cl | 33.3% | 0.86 nM | Emax [2]: 36.1%; clearance [7]: 129 mL/min/kg; AUC(0-inf) [8]: 0.7 µM·h; Activity [4]: inactive; Cmax [9]: 1000 nM; half-life [10]: 72 min; blood plasma ratio at 4 h [11]: 8.8; Tmax [12]: 4.8 min; half-life [13]: 102 min; EC50 [14]: 20.4 µM; Vd [15]: 13.3 L/kg; Cmax [16]: 1100 nM; blood plasma ratio at 4 h [17]: 5.1; AUC(0-inf) [18]: 1.9 µM·h; Tmax [19]: 30 min; bioavailability [20]: 51.2% |
| OCCCC#Cc1ccc(OCC2(Cc3cccc(Cl)c3)CCCNC2)cn1 (centres undefined) |  | > 67.7 nM | inhibition [21]: < 50% |
| OCCC#Cc1ccc(OCC2(Cc3cccc(Cl)c3)CCCNC2)cn1 (centres undefined) |  | 29 nM |  |
| FC(F)(F)c1cccc(CC2(COc3cccnc3)CCCNC2)c1 (centres undefined) | 28% | 5.93 nM | Activity [4]: inactive |
| Clc1cccc(CC2(COc3cncc(-c4ccccc4)c3)CCCNC2)c1 (centres undefined) |  | > 67.7 nM | inhibition [21]: < 50% |
| Clc1cccc(CC2(COc3ccncc3)CCCNC2)c1 (centres undefined) |  | 16.5 nM |  |
| Cc1ccccc1CC1(COc2cccnc2)CCCNC1 (centres undefined) | 12.8% | 18.8 nM |  |
| O=C(N[C@H]1CN2CCC1CC2)c1cc2cccc(Cl)c2s1 [ENCENICLINE] |  |  | EC50 [22]: 390 nM |
| Clc1cccc(CC2(COc3ccc(Br)nc3)CCCNC2)c1 (centres undefined) |  | 11.4 nM |  |
| FC(F)(F)c1ccc(CC2(COc3cccnc3)CCCNC2)cc1 (centres undefined) | 17.5% | 11.9 nM |  |

| SMILES | Efficacy [2] | Ki [3] | also measured |
| --- | --- | --- | --- |
| Cc1cccc(CC2(COc3cccnc3)CCCNC2)c1 (centres undefined) | 14.8% | 12.4 nM |  |
| OCCCCC#Cc1cncc(OCC2(Cc3cccc(Cl)c3)CCCNC2)c1 (centres undefined) | 4.5% | 3.47 nM | Activity [4]: inactive; inhibition [5]: 12.8%; inhibition [6]: 97.3% |
| Clc1cccc(CC2(COc3ccccn3)CCCNC2)c1 (centres undefined) |  | > 67.7 nM | inhibition [21]: < 50% |
| Clc1cccc(CC2(COc3cccnc3)CCCNC2)c1 (centres undefined) | 33.8% | 5.3 nM |  |
| Clc1ccc(C[C@]2(COc3cccnc3)CCCNC2)cc1Cl | 5.5% | 26.2 nM | Activity [4]: inactive; inhibition [5]: 27.2%; inhibition [6]: 90.8% |
| Cc1ccc(CC2(COc3cccnc3)CCCNC2)cc1 (centres undefined) | 13% | 16.5 nM |  |
| Clc1ccc(CC2(COc3cccnc3)CCCNC2)cc1 (centres undefined) | 18.2% | 9.77 nM |  |
| OCCCCC#Cc1ccc(OCC2(Cc3cccc(Cl)c3)CCCNC2)cn1 (centres undefined) | 8.5% | 16 nM |  |
| Clc1cccc(CC2(COc3cncc(Br)c3)CCCNC2)c1 (centres undefined) |  | 22.2 nM |  |
| FC(F)(F)c1ccccc1CC1(COc2cccnc2)CCCNC1 (centres undefined) | 13.5% | 17.2 nM |  |
| Clc1ccc(CC2(COc3cccnc3)CCCNC2)cc1Cl (centres undefined) |  | 2.27 nM |  |
| OCCC#Cc1cncc(OCC2(Cc3cccc(Cl)c3)CCCNC2)c1 (centres undefined) |  | 5.57 nM |  |
| Clc1cccc(CC2(COc3ccc4c(c3)[nH]c3ccccc34)CCCNC2)c1 (centres undefined) |  | > 67.7 nM | inhibition [21]: < 50% |
| Clc1cccc(CC2(COc3ccc(Cl)nc3)CCCNC2)c1 (centres undefined) | 4.4% | 3.39 nM |  |
| Clc1ccccc1CC1(COc2cccnc2)CCCNC1 (centres undefined) | 16.8% | 13 nM |  |
